“And” between values parts separate entries of the source, which are not always exact repeats. Equal entries are not always repeated.
What was measured:
Type in all cases: cell-based
E. Aerogenes = experiment: Minimum inhibitory concentration, 18 hour Basal Salts test; details: for MIC pH8: pH 8; for MIC pH6: pH 6
[1] = tested on: Bacteria of the genera Bacillus, Flavobacterium, and Pseudomonas; experiment: Bioreactor bacterial adhesion test, quantitative inhibition of bacterial adhesion (IBA) by crystal violet absorbance at 586 nm; details: 100 ppm, acetone solvent, 168 h incubation at 26-28 C, 50% or greater considered effective
Description: The test method, construction of bioreactors, bacterial growth medium, preparation of bacterial inocula, and biofilm production/chemical testing is the same as outlined in EXAMPLE 3. After 168 h (1 week) of incubation at 26-28 C, the slides were removed from the bioreactors and were positioned vertically to […] using a staining procedure. The slides were briefly flamed in order to fix the cells to the surface, and then transferred for one minute to a container of Gram Crystal Violet (DIFCO Laboratories, Detroit, Mich.). The slides were gently rinsed under running tap water, carefully blotted, and again allowed to air dry overnight The degree of bacterial adhesion was then determined by a quantitative method of evaluation. The pair of glass slides and the pair of stainless steel slides corresponding to each treatment were placed each in Petri plate with 10 mL ethanol (technical) to remove the crystal violet staining the cells attached to the slides. A 1 mL aliquot of the crystal violet ethanol solution obtained in each Petri plate was transferred each to a test tube with 9 mL of deionized sterile water ( 1/10 dilution). The blank for calibration of the optical instrument used for the evaluation was a solution of 1 mL of ethanol in 9 mL of deionized sterile water. The absorbance (ABS) of each solution was determined using a spectrophotometer (Spectronic 21, Bausch and Lomb) at a wavelength of 586 nm. The inhibition of bacterial adhesion (IBA) was calculated: IBA=100 (ABS control−ABS treatment)\ABS control 90 or >% IBA=essentially no bacterial adhesion 89-70% IBA=scant 69-50% IBA=slight 30% IBA=moderate 29-<29% IBA=moderate Compounds which receive 50% IBA or greater were considered effective to prevent the adhesion of bacteria to the submerged slides.

[2] = tested on: Bacteria of the genera Bacillus, Flavobacterium, and Pseudomonas; experiment: Bioreactor bacterial adhesion test, visual biofilm scoring of crystal violet stained slides; design: key: 0=essentially none; 1=scant; 2=slight; 3=moderate; 4=heavy; details: Glass slides; 100 ppm; acetone solvent; 3 days; average of four replicate slides; 0-2 considered effective
Description: Test Method: The following method effectively defines the ability of a chemical compound to inhibit bacterial adhesion, or attack the formation of existing attached microorganisms, on various types of surfaces. As an overview, bioreactors were constructed in which approximately 1 in.×3 in. slides (glass or stainless steel) were fixed to the edge of the bioreactor. The lower ends (approx. 2 in.) of the slides dipped into a bacterial growth medium (pH 7) within the bioreactor which contained a known concentration of the test chemical. Following inoculation with known bacterial species, the test solutions were stirred continuously for 3 days. Unless otherwise indicated in the results below, the medium within the bioreactor was turbid by the end of three days. […] A staining procedure was then used on the slides in order to determine the amount of bacteria attached to the surfaces of the slides.
Construction of Bioreactors: The bioreactors comprised a 400 ml glass beaker over which a lid (cover from a standard 9 cm diameter glass petri dish) was placed. With the lid removed, slides of the material of choice were taped at one end with masking tape and suspended inside the bioreactor from the top edge of the beaker. This allows the slides to be submerged within the test medium. Typically, four slides (replicates) were uniformly spaced around the bioreactor. The score presented below are the average of the four replicates. A magnetic stirring bar was placed in the bottom of the unit, the lid positioned, and the bioreactor autoclaved. Two different types of material were used as slides, stainless steel as a metal and glass as a hydrophillic surface.
Bacterial Growth Medium: The liquid medium utilized in the bioreactors was described previously by Delaquis, et al., “Detachment Of Pseudomonas fluorescens From Biofilms On Glass Surfaces In Response To Nutrient Stress”, Microbial Ecology 18:199-210, 1989. The composition of the medium was:
The medium was autoclaved and then allowed to cool. If a sediment formed in the autoclaved medium, the medium was resuspended by shaking before use.
Preparation of Bacterial Inocula: Bacteria of the genera Bacillus, Flavobacterium, and Pseudomonas were isolated from a paper mill slime deposit and maintained in continuous culture. The test organisms were separately streaked onto plate count agar and incubated at 30° C. for 24 hours. With a sterile cotton swab, portions of the colonies were removed and suspended in sterile water. […]
Biofilm Production/Chemical Testing: To four separate bioreactors was added 200 ml of the sterile medium prepared above. Chemicals to be evaluated as biodispersants were first prepared as a stock solution (40 mg/2 ml) using either water or a 9:1 acetone: methanol mixture (ac/MeOH) as a solvent. […]

Compound | MIC pH8 (E. Aerogenes) | Score (% IBA) 168 h Incub. ([1]; Glass slides) | Score (% IBA) 168 h Incub. ([1]; SS (stainless steel) slides) | Score (biofilm score) [2] | MIC pH6 (E. Aerogenes)
CCCCNS(=O)(=O)O [a, butyl sulfamic acid] | >500 | 0 % IBA | 66 % IBA | – | –
CCCCCNS(=O)(=O)O [b, amyl sulfamic acid] | >500 | 65 % IBA | 14 % IBA | – | –
CCCCCCCCNS(=O)(=O)O [c, octyl sulfamic acid] | >100 | 41 % IBA | 54 % IBA | – | –
CCCCCCCCN(CCCCCCCC)S(=O)(=O)O [d, dioctyl sulfamic acid] | >100 | – | – | 3 | –
CCCCCCCCCCCCNS(=O)(=O)O [e, dodecyl sulfamic acid] | – | 82 % IBA and 72 % IBA | 78 % IBA and 70 % IBA | 3.8 | –
CCCCCCCCCCCCN(CCCCCCCCCCCC)S(=O)(=O)O [f, didodecyl sulfamic acid] | – | 27 % IBA | 15 % IBA | 2.00 | –
CCCCCCCCCCCCCCCCCCNS(=O)(=O)O [g, octadecyl sulfamic acid] | >500 | – | – | – | –
O=S(=O)(O)N(C1CCCCC1)C1CCCCC1 [h, dicyclohexyl sulfamic acid] | >100 | 44 % IBA | 57 % IBA | – | >500
O=S(=O)(O)NN1CCOCC1 [i, morpholino sulfamic acid] | >100 | 47 % IBA | 39 % IBA | – | >500
piperidinyl sulfamic acid [j] | >100 | 40 % IBA | 68 % IBA | 2.5 | >100

— patent US6380182B1, “Methods and compositions controlling biofouling using sulfamic acids” (priority 1997, dated 2002)
